Laboratory results: patent US20230382925A1, “MODULATORS OF CYSTIC FIBROSIS TRANSMEMBRANE CONDUCTANCE REGULATOR” (VERTEX PHARMACEUTICALS INCORPORATED, priority 2020, published 2023)
Read-outs that look alike come from different tables or passages of the source.

Molecular target: CFTR (Homo sapiens, UniProt P13569)
Experiment: Membrane Potential Dye, Enteroid Assay B
Assay type: cell-based
Procedure, shortened: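 Activity given as % of a triple-combination reference (1 μM and 3 μM correctors, 300 nM acute potentiator). Enteroids were preincubated 18-24 h with compound; chloride efflux then measured 15 min by methyl oxonol fluorescence after forskolin/IBMX/Compound III stimulation in chloride-free buffer containing CaCCinh-A01 and Chicago Sky Blue.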

[1] = Table 10, read-out: Ent. B EC50

CFTR, sequence (P13569 with tags, fused parts or gaps DEL508-508): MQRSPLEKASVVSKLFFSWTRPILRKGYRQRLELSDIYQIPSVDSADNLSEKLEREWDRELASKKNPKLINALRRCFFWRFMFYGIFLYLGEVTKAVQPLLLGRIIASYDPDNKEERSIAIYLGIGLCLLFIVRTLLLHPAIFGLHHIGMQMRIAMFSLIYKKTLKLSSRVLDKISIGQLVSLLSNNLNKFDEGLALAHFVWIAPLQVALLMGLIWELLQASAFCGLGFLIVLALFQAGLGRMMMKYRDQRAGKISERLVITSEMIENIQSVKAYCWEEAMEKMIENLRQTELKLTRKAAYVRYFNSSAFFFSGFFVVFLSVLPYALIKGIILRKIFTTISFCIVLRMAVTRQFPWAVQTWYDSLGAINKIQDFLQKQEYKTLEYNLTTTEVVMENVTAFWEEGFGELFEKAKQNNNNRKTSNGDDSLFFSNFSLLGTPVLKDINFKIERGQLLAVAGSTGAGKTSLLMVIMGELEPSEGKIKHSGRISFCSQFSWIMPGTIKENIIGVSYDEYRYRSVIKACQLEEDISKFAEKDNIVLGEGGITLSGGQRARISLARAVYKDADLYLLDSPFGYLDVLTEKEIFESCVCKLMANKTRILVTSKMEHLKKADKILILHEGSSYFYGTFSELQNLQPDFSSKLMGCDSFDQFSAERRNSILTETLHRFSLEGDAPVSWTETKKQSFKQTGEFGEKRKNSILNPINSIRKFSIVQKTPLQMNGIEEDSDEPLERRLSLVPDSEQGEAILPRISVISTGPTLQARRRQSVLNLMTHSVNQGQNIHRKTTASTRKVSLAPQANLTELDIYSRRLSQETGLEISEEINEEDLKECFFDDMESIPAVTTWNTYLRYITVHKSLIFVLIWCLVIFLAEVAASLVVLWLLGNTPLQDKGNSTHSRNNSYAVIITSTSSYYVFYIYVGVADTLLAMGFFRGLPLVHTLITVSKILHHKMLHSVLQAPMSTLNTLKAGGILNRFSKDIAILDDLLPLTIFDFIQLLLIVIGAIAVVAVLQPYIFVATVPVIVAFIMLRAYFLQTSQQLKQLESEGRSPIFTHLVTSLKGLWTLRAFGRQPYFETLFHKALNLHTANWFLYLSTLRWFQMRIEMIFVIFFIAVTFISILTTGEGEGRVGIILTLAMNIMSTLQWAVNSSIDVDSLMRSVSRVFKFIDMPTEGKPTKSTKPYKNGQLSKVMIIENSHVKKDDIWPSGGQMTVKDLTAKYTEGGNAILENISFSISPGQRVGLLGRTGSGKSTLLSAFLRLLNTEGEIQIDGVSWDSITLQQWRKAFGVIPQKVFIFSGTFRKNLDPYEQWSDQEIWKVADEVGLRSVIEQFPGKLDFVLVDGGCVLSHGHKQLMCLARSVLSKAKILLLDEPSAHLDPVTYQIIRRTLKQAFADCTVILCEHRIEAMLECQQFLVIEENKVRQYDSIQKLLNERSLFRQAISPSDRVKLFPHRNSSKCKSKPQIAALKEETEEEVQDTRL

Structure (SMILES)	Ent. B Max Activity (%) (Table 9)	EC50 (Table 9, read-out: Ent. B EC50) [nM]	Ent. B Max Activity (%)	EC50 (read-out: Ent. B EC50) [nM]	further results
Cc1cccc(C)c1-c1cc2nc(n1)NS(=O)(=O)c1cccc(c1)C(=O)N([C@H]1C[C@@]3(C[C@H](N(C)C(=O)OC(C)C)C3)C1)[C@H](CC1(C(F)(F)F)CC1)CO2 (some centres unmarked) [Compound 272]	+++ (+++ is >60%)	< 1000			
Cc1cccc(C)c1-c1cc2nc(n1)NS(=O)(=O)c1cccc(c1)C(=O)N(C1CC3(CCN(C4CCOCC4)CC3)C1)[C@H](CC(C)C)CO2 [Compound 275]	+++ (+++ is >60%)	< 1000			
Cc1cccc(C)c1-c1cc2nc(n1)NS(=O)(=O)c1cccc(c1)C(=O)N(C1CC3(CCN(C4CC(F)(F)C4)CC3)C1)[C@H](CC(C)C)CO2 [Compound 276]	+++ (+++ is >60%)	< 1000			
Cc1cccc(C)c1-c1cc2nc(n1)NS(=O)(=O)c1cccc(c1)C(=O)N(C1CC3(CCN(CCOC4CC4)CC3)C1)[C@H](CC(C)C)CO2 [Compound 278]	+++ (+++ is >60%)	< 1000			
Cc1cccc(C)c1-c1cc2nc(n1)NS(=O)(=O)c1cccc(c1)C(=O)N(C1CC3(CCN(CC(C)(C)C)CC3)C1)[C@H](CC(C)C)CO2 [Compound 279]	+++ (+++ is >60%)	< 1000			
CN[C@H]1CC2(C1)C[C@H](N1C(=O)c3cccc(c3)S(=O)(=O)Nc3nc(cc(-c4c(C)cccc4C)n3)OC[C@H]1CC(C)C)C2 (some centres unmarked) [Compound 281]	+++ (+++ is >60%)	< 1000			
[H][C@]1(N2C(=O)c3cccc(c3)S(=O)(=O)Nc3nc(cc(-c4c(C)cccc4C)n3)OC[C@H]2CC(C)C)C[C@@]2(C[C@H](N(C)C(=O)OC(C)C)C2)C1 (some centres unmarked) [Compound 284]	++ (++ is 30-60%)	< 1000			
Cc1cccc(C)c1-c1cc2nc(n1)NS(=O)(=O)c1cccc(c1)C(=O)N(C1CC3(CCN(CCO)CC3)C1)[C@H](CC(C)C)CO2 [Compound 289]	++ (++ is 30-60%)	< 1000			
Cc1cccc(C)c1-c1cc2nc(n1)NS(=O)(=O)c1cccc(c1)C(=O)N(C1CC3(CCN(CCOCc4ccccc4)CC3)C1)[C@H](CC(C)C)CO2 [Compound 290]	+++ (+++ is >60%)	< 1000			
Cc1cccc(C)c1-c1cc2nc(n1)NS(=O)(=O)c1cc(n(C)n1)C(=O)N(C1CC3(CCN(C)CC3)C1)[C@H](CC(C)C)CO2 [Compound 293]	+++ (+++ is >60%)	1000 to 3000			
[H][C@]1(N2C(=O)c3cccc(c3)S(=O)(=O)Nc3nc(cc(-c4c(C)cccc4C)n3)OC[C@H]2CC2(C(F)(F)F)CC2)C[C@@]2(C[C@H](N(C)C)C2)C1 (some centres unmarked) [Compound 297]			+++ (+++ is >60%)	< 1000	
[H][C@]1(N2C(=O)c3cccc(c3)S(=O)(=O)Nc3nc(cc(-c4c(C)cccc4C)n3)OC[C@H]2CC2(C(F)(F)F)CC2)C[C@@]2(C[C@H](N(C)C)C2)C1 (some centres unmarked) [Compound 298]			+++ (+++ is >60%)	< 1000	
Cc1cccc(C)c1-c1cc2nc(n1)NS(=O)(=O)c1cccc(c1)C(=O)N(C1CC3(CCN(CCOC(F)(F)F)CC3)C1)[C@H](CC(C)C)CO2 [Compound 299]			+++ (+++ is >60%)	< 1000	
Cc1cccc(C)c1-c1cc2nc(n1)NS(=O)(=O)c1cccc(c1)C(=O)N([C@H]1C[C@@H](N(C)C)C1)[C@H](CC(C)C)CO2 [Compound 302]			+++ (+++ is >60%)	< 1000	
COC(=O)N[C@H]1CC2(C1)C[C@H](N1C(=O)c3cccc(c3)S(=O)(=O)Nc3nc(cc(-c4c(C)cccc4C)n3)OC[C@H]1CC(C)C)C2 (some centres unmarked) [Compound 304]			+++ (+++ is >60%)	< 1000	
COC(=O)N[C@H]1CC2(C1)C[C@H](N1C(=O)c3cccc(c3)S(=O)(=O)Nc3nc(cc(-c4c(C)cccc4C)n3)OC[C@H]1CC(C)C)C2 (some centres unmarked) [Compound 305]			+++ (+++ is >60%)	< 1000	
Cc1cccc(C)c1-c1cc2nc(n1)NS(=O)(=O)c1cccc(c1)C(=O)N(C1CC(C(=O)N3CCOCC3)C1)[C@H](CC(C)C)CO2 (some centres unmarked) [Compound 307]			+++ (+++ is >60%)	< 1000	
Cc1cccc(C)c1-c1cc2nc(n1)NS(=O)(=O)c1cccc(c1)C(=O)N(C1CC3(CCN(CC(F)F)CC3)C1)[C@H](CC(C)C)CO2 [Compound 322]			+++ (+++ is >60%)	< 1000	
Cc1cccc(C)c1-c1cc2nc(n1)NS(=O)(=O)c1cccc(c1)C(=O)N(C1CC3(CC(=O)C3)C1)[C@H](CC(C)(C)C)CO2 [Compound 352]					Ent. B Max Activity (%) (Table 10): +++ (+++ is >60%); EC50 [1]: < 1000 nM
CCC(=O)NC1CC2(C1)CC(N1C(=O)c3cccc(c3)S(=O)(=O)Nc3nc(cc(-c4c(C)cccc4C)n3)OC[C@H]1CC(C)(C)C)C2 (some centres unmarked) [Compound 353]					Ent. B Max Activity (%) (Table 10): +++ (+++ is >60%); EC50 [1]: < 1000 nM
Cc1cccc(C)c1-c1cc2nc(n1)NS(=O)(=O)c1cccc(c1)C(=O)N(C1CC3(C1)CC(CO)(CO)C3)[C@H](CC(C)(C)C)CO2 [Compound 354]					Ent. B Max Activity (%) (Table 10): +++ (+++ is >60%); EC50 [1]: < 1000 nM
CCOC(=O)NC1CC2(C1)CC(N1C(=O)c3cccc(c3)S(=O)(=O)Nc3nc(cc(-c4c(C)cccc4C)n3)OC[C@H]1CC(C)(C)C)C2 (some centres unmarked) [Compound 357]					Ent. B Max Activity (%) (Table 10): +++ (+++ is >60%); EC50 [1]: < 1000 nM
Cc1cccc(C)c1-c1cc2nc(n1)NS(=O)(=O)c1cccc(c1)C(=O)N([C@H]1C[C@@H](N3C[C@@H](C)CC3(C)C)C1)[C@H](CC(C)C)CO2 [Compound 359]					Ent. B Max Activity (%) (Table 10): ++ (++ is 30-60%); EC50 [1]: < 1000 nM
CC(=O)N[C@H]1C[C@@H](N2C(=O)c3cccc(c3)S(=O)(=O)Nc3nc(cc(-c4c(C)cccc4C)n3)OC[C@H]2CC(C)C)C1 [Compound 366]	+++ (+++ is >60%)	< 1000			
Cc1cccc(C)c1-c1cc2nc(n1)NS(=O)(=O)c1cccc(c1)C(=O)N([C@H]1C[C@@H](NC(C)C)C1)[C@H](CC(C)C)CO2 [Compound 367]	+++ (+++ is >60%)	< 1000			
Cc1cccc(C)c1-c1cc2nc(n1)NS(=O)(=O)c1cccc(c1)C(=O)N(C1CC(N3CCCC3=O)C1)[C@H](CC(C)C)CO2 (some centres unmarked) [Compound 369]					Ent. B Max Activity (%) (Table 10): ++ (++ is 30-60%); EC50 [1]: < 1000 nM

Now from value to compound, other results behind:

Ent. B Max Activity (%) (Table 9)	EC50 (Table 9, read-out: Ent. B EC50) [nM]	Ent. B Max Activity (%)	EC50 (read-out: Ent. B EC50) [nM]	Structure (SMILES)	further results
+++ (+++ is >60%)	< 1000			COC(=O)N[C@H]1C[C@@]2(C1)C[C@H](N1C(=O)c3cccc(c3)S(=O)(=O)Nc3nc(cc(-c4c(C)cccc4C)n3)OC[C@H]1CC1(C(F)(F)F)CC1)C2 (some centres unmarked) [Compound 273]	
+++ (+++ is >60%)	< 1000			COC(=O)N[C@H]1CC2(C1)C[C@H](N1C(=O)c3cccc(c3)S(=O)(=O)Nc3nc(cc(-c4c(C)cccc4C)n3)OC[C@H]1CC1(C(F)(F)F)CC1)C2 (some centres unmarked) [Compound 274]	
+++ (+++ is >60%)	< 1000			Cc1cccc(C)c1-c1cc2nc(n1)NS(=O)(=O)c1cccc(c1)C(=O)N(C1CC3(CCN(C4CCC4)CC3)C1)[C@H](CC(C)C)CO2 [Compound 280]	
++ (++ is 30-60%)	< 1000			Cc1cccc(C)c1-c1cc2nc(n1)NS(=O)(=O)c1cccc(c1)C(=O)N([C@H]1CC3(C[C@H](N(C)C(=O)OC(C)C)C3)C1)[C@H](CC(C)C)CO2 (some centres unmarked) [Compound 283]	
+++ (+++ is >60%)	< 1000			[H][C@]1(N2C(=O)c3cccc(c3)S(=O)(=O)Nc3nc(cc(-c4c(C)cccc4C)n3)OC[C@H]2CC(C)C)C[C@@]2(C[C@H](N(C)CCOC)C2)C1 (some centres unmarked) [Compound 285]	
+++ (+++ is >60%)	< 1000			[H][C@]1(N2C(=O)c3cccc(c3)S(=O)(=O)Nc3nc(cc(-c4c(C)cccc4C)n3)OC[C@H]2CC(C)C)C[C@@]2(C[C@H](N(C)CCOC)C2)C1 (some centres unmarked) [Compound 286]	
			< 1000	Cc1cccc(C)c1-c1cc2nc(n1)NS(=O)(=O)c1cccc(c1)C(=O)N(C1CC3(CCN(CCOC(C)C)CC3)C1)[C@H](CC(C)C)CO2 [Compound 300]	
		+++ (+++ is >60%)	< 1000	CCCN1CCC2(CC1)CC(N1C(=O)c3cccc(c3)S(=O)(=O)Nc3nc(cc(-c4c(C)cccc4C)n3)OC[C@H]1CC(C)C)C2 [Compound 303]	
		+++ (+++ is >60%)	< 1000	COCCN(C)C(=O)C1CC(N2C(=O)c3cccc(c3)S(=O)(=O)Nc3nc(cc(-c4c(C)cccc4C)n3)OC[C@H]2CC(C)C)C1 (some centres unmarked) [Compound 306]	
		+++ (+++ is >60%)	< 1000	COC1CCN(C(=O)C2CC(N3C(=O)c4cccc(c4)S(=O)(=O)Nc4nc(cc(-c5c(C)cccc5C)n4)OC[C@H]3CC(C)C)C2)CC1 (some centres unmarked) [Compound 308]	
		+++ (+++ is >60%)	< 1000	COC1(C)CCN(C(=O)C2CC(N3C(=O)c4cccc(c4)S(=O)(=O)Nc4nc(cc(-c5c(C)cccc5C)n4)OC[C@H]3CC(C)C)C2)CC1 (some centres unmarked) [Compound 309]	
		+++ (+++ is >60%)	< 1000	CCOCCN1CCC2(CC1)CC(N1C(=O)c3cccc(c3)S(=O)(=O)Nc3nc(cc(-c4c(C)cccc4C)n3)OC[C@H]1CC(C)C)C2 [Compound 310]	
+++ (+++ is >60%)	< 1000			COC(=O)N[C@H]1C[C@@H](N2C(=O)c3cccc(c3)S(=O)(=O)Nc3nc(cc(-c4c(C)cccc4C)n3)OC[C@H]2CC(C)C)C1 [Compound 368]	
+++ (+++ is >60%)	1000 to 3000			Cc1cccc(C)c1-c1cc2nc(n1)NS(=O)(=O)c1cccc(c1)C(=O)N(C1CC(N[C@H]3CC[C@@H](O)CC3)C1)[C@H](CC(C)C)CO2 (some centres unmarked) [Compound 371]	
+++ (+++ is >60%)	< 1000			Cc1cccc(C)c1-c1cc2nc(n1)NS(=O)(=O)c1cccc(c1)C(=O)N(C1CC(N[C@H]3CC[C@H](CO)CC3)C1)[C@H](CC(C)C)CO2 (some centres unmarked) [Compound 373]	
+++ (+++ is >60%)	< 1000			Cc1cccc(C)c1-c1cc2nc(n1)NS(=O)(=O)c1cccc(c1)C(=O)N(C1CC(NC3CCC3)C1)[C@H](CC(C)C)CO2 (some centres unmarked) [Compound 375]	
